Columns and labels:
[1] = target: T1, PI3K gamma (Homo sapiens, UniProt P48736); experiment: Luciferase-based luminescence assay (ADP Glo), PI3K gamma enzymatic activity; format: biochemical; conditions: inhibition of enzymatic activity, 25 μM ATP, read-out: IC50 p110γ
T1 construct: purchased Invitrogen Corp., Carlsbad, CA, USA
Summary of the method: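 Final enzyme 4.8 nM PI3K beta or 7.6 nM PI3K gamma, with 50 μM PIP2 and 25 μM ATP, 1 h in HEPES pH 7.5 buffer with MgCl2, EGTA, NaCl, CHAPS and DTT. ADP formed measured by ADP-Glo luminescence; IC50 from 10-point curve fits.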

[2] = target: T2, PI3K delta (Homo sapiens, UniProt O00329); experiment: Luciferase-based luminescence assay (KinaseGlo), PI3K delta enzymatic activity; format: biochemical; conditions: for IC50: inhibition of enzymatic activity, KinaseGlo, 25 μM ATP, read-out: IC50 p110δ; for α/δ ratio: ratio of enzymatic IC50 against PI3Kα over IC50 against PI3Kδ; for β/δ ratio / γ/δ ratio: ratio of enzymatic IC50 values, Table 1
T2 construct: purchased Millipore, Billerica, MA, USA
Summary of the method: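 KinaseGlo luminescence measured ATP remaining after PIP2 (50 μM) phosphorylation with 25 μM ATP in HEPES pH 7.5 buffer with CHAPS and DTT. Final enzyme was 1.65 nM alpha (1 h reaction) or 6.86 nM delta (2 h reaction). IC50 was curve-fitted from 10 concentrations.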

T2 sequence (O00329 whole entry, species assumed): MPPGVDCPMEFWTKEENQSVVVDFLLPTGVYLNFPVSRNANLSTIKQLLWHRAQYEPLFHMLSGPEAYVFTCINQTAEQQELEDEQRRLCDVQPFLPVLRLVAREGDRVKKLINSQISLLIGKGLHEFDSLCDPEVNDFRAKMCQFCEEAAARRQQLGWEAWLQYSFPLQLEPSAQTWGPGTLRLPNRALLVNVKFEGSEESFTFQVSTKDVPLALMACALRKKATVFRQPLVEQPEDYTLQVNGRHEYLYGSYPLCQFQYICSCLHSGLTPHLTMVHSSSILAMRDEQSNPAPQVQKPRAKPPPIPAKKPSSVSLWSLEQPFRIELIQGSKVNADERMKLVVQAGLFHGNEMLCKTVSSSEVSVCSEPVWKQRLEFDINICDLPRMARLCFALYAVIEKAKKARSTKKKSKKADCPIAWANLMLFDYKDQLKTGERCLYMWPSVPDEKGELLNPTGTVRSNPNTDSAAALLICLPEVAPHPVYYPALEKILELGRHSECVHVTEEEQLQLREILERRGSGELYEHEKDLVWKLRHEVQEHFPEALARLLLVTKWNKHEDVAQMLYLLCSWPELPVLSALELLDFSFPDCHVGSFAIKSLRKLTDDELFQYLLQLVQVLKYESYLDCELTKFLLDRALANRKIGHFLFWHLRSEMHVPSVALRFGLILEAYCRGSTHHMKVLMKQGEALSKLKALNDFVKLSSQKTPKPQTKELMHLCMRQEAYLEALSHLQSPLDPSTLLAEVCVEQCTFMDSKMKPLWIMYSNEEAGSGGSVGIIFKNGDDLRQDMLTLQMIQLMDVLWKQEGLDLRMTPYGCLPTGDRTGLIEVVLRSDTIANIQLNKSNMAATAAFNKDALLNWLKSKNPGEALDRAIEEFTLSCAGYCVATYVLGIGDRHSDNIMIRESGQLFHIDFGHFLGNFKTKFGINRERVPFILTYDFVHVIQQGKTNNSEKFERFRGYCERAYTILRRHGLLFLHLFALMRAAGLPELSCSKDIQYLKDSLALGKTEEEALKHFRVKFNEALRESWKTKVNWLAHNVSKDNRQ
T2 sequence (P27986 whole entry partner, species assumed): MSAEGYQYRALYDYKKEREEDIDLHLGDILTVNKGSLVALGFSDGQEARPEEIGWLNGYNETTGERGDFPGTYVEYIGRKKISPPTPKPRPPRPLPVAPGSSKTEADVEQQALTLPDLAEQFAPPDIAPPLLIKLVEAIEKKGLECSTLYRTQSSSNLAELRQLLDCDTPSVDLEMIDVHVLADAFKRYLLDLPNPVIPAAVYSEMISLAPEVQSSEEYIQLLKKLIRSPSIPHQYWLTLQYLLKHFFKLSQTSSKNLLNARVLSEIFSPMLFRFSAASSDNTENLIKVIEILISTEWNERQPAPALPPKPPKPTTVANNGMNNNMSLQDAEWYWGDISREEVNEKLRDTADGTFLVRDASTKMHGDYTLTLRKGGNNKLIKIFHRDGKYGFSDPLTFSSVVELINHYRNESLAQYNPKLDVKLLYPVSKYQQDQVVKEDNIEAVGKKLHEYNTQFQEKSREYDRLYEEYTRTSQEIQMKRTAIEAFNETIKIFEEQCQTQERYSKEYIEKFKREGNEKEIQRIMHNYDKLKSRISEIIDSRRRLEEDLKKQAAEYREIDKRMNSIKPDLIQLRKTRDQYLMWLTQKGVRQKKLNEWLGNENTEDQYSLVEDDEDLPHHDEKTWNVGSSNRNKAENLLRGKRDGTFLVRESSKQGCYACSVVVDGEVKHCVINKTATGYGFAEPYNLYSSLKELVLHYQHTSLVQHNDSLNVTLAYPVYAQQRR
T1 sequence (P48736 whole entry, species assumed): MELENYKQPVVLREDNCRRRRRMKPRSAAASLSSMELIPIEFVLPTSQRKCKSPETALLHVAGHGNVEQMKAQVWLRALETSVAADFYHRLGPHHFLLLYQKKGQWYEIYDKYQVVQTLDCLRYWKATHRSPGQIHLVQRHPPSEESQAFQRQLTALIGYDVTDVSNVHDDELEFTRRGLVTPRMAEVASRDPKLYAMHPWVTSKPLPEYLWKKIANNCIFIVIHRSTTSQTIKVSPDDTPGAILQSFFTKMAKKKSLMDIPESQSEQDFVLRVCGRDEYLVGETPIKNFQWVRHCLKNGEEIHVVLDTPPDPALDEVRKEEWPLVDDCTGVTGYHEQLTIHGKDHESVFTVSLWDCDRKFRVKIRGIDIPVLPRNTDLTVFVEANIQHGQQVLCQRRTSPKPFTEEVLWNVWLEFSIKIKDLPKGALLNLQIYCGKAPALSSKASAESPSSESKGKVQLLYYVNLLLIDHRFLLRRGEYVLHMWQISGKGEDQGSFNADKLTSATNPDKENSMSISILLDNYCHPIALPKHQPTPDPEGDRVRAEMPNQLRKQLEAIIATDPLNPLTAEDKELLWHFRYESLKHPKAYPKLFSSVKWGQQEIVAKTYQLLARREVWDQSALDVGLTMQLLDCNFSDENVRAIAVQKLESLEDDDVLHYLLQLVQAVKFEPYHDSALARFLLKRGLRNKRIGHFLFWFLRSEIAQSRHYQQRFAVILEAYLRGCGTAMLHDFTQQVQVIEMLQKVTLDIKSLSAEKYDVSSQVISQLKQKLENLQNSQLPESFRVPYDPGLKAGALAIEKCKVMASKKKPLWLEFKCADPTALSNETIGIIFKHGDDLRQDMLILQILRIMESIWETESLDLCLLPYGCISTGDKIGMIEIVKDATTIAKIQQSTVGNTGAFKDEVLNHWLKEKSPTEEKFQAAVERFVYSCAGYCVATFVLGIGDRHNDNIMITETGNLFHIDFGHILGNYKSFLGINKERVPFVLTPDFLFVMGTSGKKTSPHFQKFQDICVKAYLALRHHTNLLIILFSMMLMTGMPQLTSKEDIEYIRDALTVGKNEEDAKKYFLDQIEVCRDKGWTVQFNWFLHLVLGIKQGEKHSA

Row | IC50 [1] [nM] | IC50 [2] [nM] | α/δ ratio [2] | β/δ ratio [2] | γ/δ ratio [2] | Compound
1 | > 500 | ≤ 100 | A’ | D’ | A’ | Cc1cc(-c2ccccc2CC(C)(C)Nc2nc(N3CCOCC3)nc(-n3c(C(F)F)nc4ccccc43)n2)ccn1 [Compound A43, 4-(2-(difluoromethyl)-1H-benzo[d]imidazol-1-yl)-N-(2-methyl-1-(2-(2-methylpyridin-4-yl)phenyl)propan-2-yl)-6-morpholino-1,3,5-triazin-2-amine]
2 | 100 to 200 | ≤ 100 | A’ | D’ | B’ | CC(C)(Cc1ccccc1C1CCN(S(C)(=O)=O)CC1)Nc1nc(N2CCOCC2)nc(-n2c(C(F)F)nc3ccccc32)n1 [Compound A73, 4-(2-(difluoromethyl)-1H-benzo[d]imidazol-1-yl)-N-(2-methyl-1-(2-(1-(methylsulfonyl)piperidin-4-yl)phenyl)propan-2-yl)-6-morpholino-1,3,5-triazin-2-amine]
3 | 200 to 500 | ≤ 100 | A’ | D’ | B’ | CC(C)(Cc1cccc(F)c1)Nc1nc(N2CCOCC2)nc(-n2c(C(F)F)nc3ccccc32)n1 [Compound A39, 4-(2-(difluoromethyl)-1H-benzo[d]imidazol-1-yl)-N-(1-(3-fluorophenyl)-2-methylpropan-2-yl)-6-morpholino-1,3,5-triazin-2-amine]
4 | > 500 | ≤ 100 | A’ | A’ | A’ | COc1cccc(-c2ccccc2CC(C)(C)Nc2nc(N3CCOCC3)nc(-n3c(C(F)F)nc4ccccc43)n2)c1 [Compound A66, 4-(2-(difluoromethyl)-1H-benzo[d]imidazol-1-yl)-N-(1-(3′-methoxybiphenyl-2-yl)-2-methylpropan-2-yl)-6-morpholino-1,3,5-triazin-2-amine]
5 | 200 to 500 | ≤ 100 | A’ | A’ | A’ | CC(C)(Cc1ccccc1-c1cncnc1)Nc1nc(N2CCOCC2)nc(-n2c(C(F)F)nc3ccccc32)n1 [Compound A63, 4-(2-(difluoromethyl)-1H-benzo[d]imidazol-1-yl)-N-(2-methyl-1-(2-(pyrimidin-5-yl)phenyl)propan-2-yl)-6-morpholino-1,3,5-triazin-2-amine]
6 | 100 to 200 | ≤ 100 | A’ | D’ | A’ | CC(C)(Cc1ccccc1-c1cn[nH]c1)Nc1nc(N2CCOCC2)nc(-n2c(C(F)F)nc3ccccc32)n1 [Compound A44, 4-(2-(difluoromethyl)-1H-benzo[d]imidazol-1-yl)-N-(1-(2-(1H-pyrazol-4-yl)phenyl)-2-methylpropan-2-yl)-6-morpholino-1,3,5-triazin-2-amine]

Second part, the molecule before the results:

Row | Compound | IC50 [1] [nM] | IC50 [2] [nM] | α/δ ratio [2] | β/δ ratio [2] | γ/δ ratio [2]
7 | CC(C)(Cc1ccccc1-c1cccnc1)Nc1nc(N2CCOCC2)nc(-n2c(C(F)F)nc3ccccc32)n1 [Compound A40, 4-(2-(difluoromethyl)-1H-benzo[d]imidazol-1-yl)-N-(2-methyl-1-(2-(pyridin-3-yl)phenyl)propan-2-yl)-6-morpholino-1,3,5-triazin-2-amine] | 200 to 500 | ≤ 100 | A’ | D’ | A’
8 | CC(=O)N1CCC(c2ccccc2CC(C)(C)Nc2nc(N3CCOCC3)nc(-n3c(C(F)F)nc4ccccc43)n2)CC1 [Compound A72, 4-(2-(difluoromethyl)-1H-benzo[d]imidazol-1-yl)-N-(2-methyl-1-(2-(1-acetylpiperidin-4-yl)phenyl)propan-2-yl)-6-morpholino-1,3,5-triazin-2-amine] | ≤ 100 | ≤ 100 | A’ | D’ | C’
9 | COc1ccc(-c2ccccc2CC(C)(C)Nc2nc(N3CCOCC3)nc(-n3c(C(F)F)nc4ccccc43)n2)cc1 [Compound A67, 4-(2-(difluoromethyl)-1H-benzo[d]imidazol-1-yl)-N-(1-(4′-methoxybiphenyl-2-yl)-2-methylpropan-2-yl)-6-morpholino-1,3,5-triazin-2-amine] | > 500 | ≤ 100 | A’ | B’ | A’
10 | COc1cc(-c2ccccc2CC(C)(C)Nc2nc(N3CCOCC3)nc(-n3c(C(F)F)nc4ccccc43)n2)ccn1 [Compound A41, 4-(2-(difluoromethyl)-1H-benzo[d]imidazol-1-yl)-N-(1-(2-(2-methoxypyridin-4-yl)phenyl)-2-methylpropan-2-yl)-6-morpholino-1,3,5-triazin-2-amine] | > 500 | ≤ 100 | A’ | A’ | A’
11 | Cn1nccc1-c1ccccc1CC(C)(C)Nc1nc(N2CCOCC2)nc(-n2c(C(F)F)nc3ccccc32)n1 [Compound A46, 4-(2-(difluoromethyl)-1H-benzo[d]imidazol-1-yl)-N-(2-methyl-1-(2-(1-methyl-1H-pyrazol-5-yl)phenyl)propan-2-yl)-6-morpholino-1,3,5-triazin-2-amine] | > 500 | ≤ 100 | A’ | D’ | A’
12 | CC(C)(Cc1ccccc1-c1ccncc1)Nc1nc(N2CCOCC2)nc(-n2c(C(F)F)nc3ccccc32)n1 [Compound A33, 4-(2-(difluoromethyl)-1H-benzo[d]imidazol-1-yl)-N-(2-methyl-1-(2-(pyridin-4-yl)phenyl)propan-2-yl)-6-morpholino-1,3,5-triazin-2-amine] | 200 to 500 | ≤ 100 | A’ | D’ | A’
13 | CN1CCN(c2cc(-c3ccccc3CC(C)(C)Nc3nc(N4CCOCC4)nc(-n4c(C(F)F)nc5ccccc54)n3)ccn2)CC1 [Compound A64, 4-(2-(difluoromethyl)-1H-benzo[d]imidazol-1-yl)-N-(2-methyl-1-(2-(2-(4-methylpiperazin-1-yl)pyridin-4-yl)phenyl)propan-2-yl)-6-morpholino-1,3,5-triazin-2-amine] | > 500 | ≤ 100 | A’ | D’ | A’
14 | COc1cc(CC(C)(C)Nc2nc(N3CCOCC3)nc(-n3c(C(F)F)nc4ccccc43)n2)ccc1F [Compound A50, 4-(2-(difluoromethyl)-1H-benzo[d]imidazol-1-yl)-N-(1-(4-fluoro-3-methoxyphenyl)-2-methylpropan-2-yl)-6-morpholino-1,3,5-triazin-2-amine] | > 500 | ≤ 100 | A’ | C’ | A’
15 | CC(C)(Cc1ccccc1Cl)Nc1nc(N2CCOCC2)nc(-n2c(C(F)F)nc3ccccc32)n1 [Compound A16, 4-(2-(difluoromethyl)-1H-benzo[d]imidazol-1-yl)-N-(1-(2-chlorophenyl)-2-methylpropan-2-yl)-6-morpholino-1,3,5-triazin-2-amine] | 200 to 500 | ≤ 100 | A’ | D’ | C’
